Data reported in US6610877B1, “Aromatic carboxylic acid derivatives” (Hoffman-La Roche Inc., priority 1993, dated 2003).

Experiments:
[1] = test system: Hairless mice (HRS/J strain); test: Repair of UV-B-caused skin damage in the hairless mouse; format: in vivo; settings: three times a week, 10 weeks, Luna staining of elastin, total surface per 20 microscopic field
Text: Repair of UV-B-caused Skin Damage in the Hairless Mouse Hairless mice (HRS/J strain, Jackson Labs, aged 5-7 weeks at the beginning of the experiment) were irradiated three times a week with an arrangement of 8 Westinghouse irradiation lamps (FS40) which were placed about 20 cm above the animals. The radiation dose was controlled by a commercial phototherapeutic control device. The UV-B dose was chosen such that the dosage scarcely exceeded 0.06 J/cm^2, caused a minimal erythema, but no burning or scarring. After a total dose of about 3.5 J/cm^2 there resulted a significant elastosis which was evident from a histological report and which was confirmed by measuring the elastin using a radioimmunoassay for desmosin in the total skin. The desmosin content increased by two- to three-fold after 3.5 J/cm^2 UV-B irradiation. In order to make good the skin damage, the UV irradiation was interrupted and groups of animals were treated three times a week with different doses of compounds of formula I dissolved in acetone. These solutions were prepared freshly each week such that the dosage to be administered was present in […] of acetone and were applied topically to an area of about 10 cm^2 on the backs of the animals. A controlled group was treated only with acetone. After treatment for 10 weeks the animals were killed, skin preparations were prepared and the extent of the recovery was measured quantitatively by Luna staining of the elastin. In this experimental model the skin recovery is defined as the appearance of a normal dermis which extends from the epidermis to the layer of compressed elastin. The extent of the recovery was given by the width of this zone. The area of the zone on a standard length of the histological section was measured and the result was expressed as the total surface in mm^2 per 20 microscopic field.

In the case of `CCCCCCCCc1cc2c(cc1/C=C/c1ccc(C(=O)O)cc1)CCC(C)(C)CC2C` (racemic) [Example 12, Rac-(E)-4-[2-(5,7,7-trimethyl-3-octyl-6,7,8,9-tetrahydro-5H-benzocyclohepten-2-yl)vinyl]benzoic acid], the melting point is reported as 182 to 183 °C.
`CCCCCCCOc1cc2c(cc1/C=C/c1ccc(C(=O)O)cc1)[C@]1(C)CCC[C@@]2(C)[C@@H]1O` (racemic) [Example 14, (E)-4-[2-[(5RS,9SR,10RS)-3-heptyloxy-10-hydroxy-5,9-dimethyl-6,7,8,9-tetrahydro-5,9-methano-5H-benzocyclohepten-2-yl]vinyl]benzoic acid] gave a melting point of 89 to 90 °C.
`CCCCOc1cc2c(cc1/C=C/C=C/C(C)=C/C(=O)O)[C@]1(C)CCC[C@@]2(C)[C@@H]1O` (racemic) [Example 19, (2E,4E,6E)-(5RS,9SR,10RS)-7-(3-butoxy-10-hydroxy-5,9-dimethyl-6,7,8,9-tetrahydro-5,9-methano-5H-benzocyclohepten-2-yl)-3-methyl-hepta-2,4,6-trienoic acid] gave a melting point of 176 to 178 °C.
With `CCCCCCc1cc2c(cc1/C=C/c1ccc(C(=O)O)cc1)C(C)(C)CCC2(C)C` [Compound A, p-[(E)-2-(3-Hexyl-5,6,7,8-tetrahydro-5,5,8,8-tetramethyl-2-naphthyl)vinyl]benzoic Acid] the melting point was 134 to 136 °C, the “Recovery Zone” value ([1]; 0.05 μg topically in acetone) was 9.8 ± 2.8 mm^2 • 10^−3 and the “Recovery Zone” value ([1]; 2 μg topically in acetone) was 27.2 ± 2.6 mm^2 • 10^−3. For the same compound, the “Recovery Zone” value ([1]; 10 μg topically in acetone) was 35.9 ± 7.5 mm^2 • 10^−3.
For `CCCCc1cc2c(cc1/C=C/c1ccc(C(=O)O)cc1)C(C)(C)CCC2(C)C` [Compound B, 4-[(E)-2-(3-Butyl-5,5,8,8-tetramethyl-5,6,7,8-tetrahydro-naphth-2-yl)vinyl]benzoic Acid], the “Recovery Zone” value ([1]; 0.5 μg topically in acetone) was 15.6 ± 2.74 mm^2 • 10^−3 and the “Recovery Zone” value ([1]; 2 μg topically in acetone) was 20.5 ± 7.17 mm^2 • 10^−3.
For `CCCCCCc1cc2c(cc1/C=C/C=C/C(C)=C/C(=O)O)C(C)(C)CCC2(C)C` [Compound C, (all E)-7-(3-Hexyl-5,5,8,8-tetramethyl-5,6,7,8-tetrahydro-naphthalen-2-yl)-3-methyl-hepta-2,4,6-trienoic Acid], the “Recovery Zone” value ([1]; 2 μg topically in acetone) was 32.8 ± 6.72 mm^2 • 10^−3 and the “Recovery Zone” value ([1]; 10 μg topically in acetone) was 59.5 ± 6.71 mm^2 • 10^−3.
With `CCc1cc2c(cc1/C=C/c1ccc(C(=O)O)cc1)C(C)(C)CCC2(C)C` [Compound D, p-[(E)-2-(3-Ethyl-5,6,7,8-tetrahydro-5,5,8,8-tetramethyl-2-naphthyl)vinyl]benzoic Acid] the “Recovery Zone” value ([1]; 0.5 μg topically in acetone) was 15.5 ± 4.9 mm^2 • 10^−3, the “Recovery Zone” value ([1]; 2 μg topically in acetone) was 19.1 ± 4.9 mm^2 • 10^−3 and the “Recovery Zone” value ([1]; 10 μg topically in acetone) was 46.5 ± 6.9 mm^2 • 10^−3.
In the case of `CCCCCCCCc1cc2c(cc1/C=C/c1ccc(C(=O)O)cc1)C(C)(C)CCC2(C)C` [Compound E, p-[(E)-2-(3-Octyl-5,6,7,8-tetrahydro-5,5,8,8-tetramethyl-2-naphthyl)vinyl]benzoic Acid], the “Recovery Zone” value ([1]; 0.5 μg topically in acetone) is reported as 7.48 ± 1.7 mm^2 • 10^−3, the “Recovery Zone” value ([1]; 2 μg topically in acetone) is reported as 4.70 ± 2.0 mm^2 • 10^−3 and the “Recovery Zone” value ([1]; 10 μg topically in acetone) is reported as 22.2 ± 8.3 mm^2 • 10^−3.
Compound `CCCCCc1cc2c(cc1/C=C/c1ccc(C(=O)O)cc1)C(C)(C)CCC2(C)C` [Example 2, (E)-4-[2-(3-Pentyl-5,5,8,8-tetramethyl-5,6,7,8-tetrahydro-naphthalen-2-yl)vinyl]benzoic acid] has a melting point of 173 to 174 °C.
With `CCCCCc1cc2c(cc1/C=C/C=C/C(C)=C/C(=O)O)C(C)(C)CCC2(C)C` [Example 5, (2E,4E,6E)-7-(3-Pentyl-5,5,8,8-tetramethyl-5,6,7,8-tetrahydro-naphthalen-2-yl)-3-methyl-hepta-2,4,6-trienoic acid] the melting point was 164 to 166 °C.
`CCCCCc1cc2c(cc1/C=C/C=C/C(C)=C\C(=O)O)C(C)(C)CCC2(C)C` [Example 6, (2Z,4E,6E)-7-(3-Pentyl-5,5,8,8-tetramethyl-5,6,7,8-tetrahydro-naphthalen-2-yl)-3-methyl-hepta-2,4,6-trienoic acid] showed a melting point of 170 to 174 °C.
With `CCCCCOc1cc2c(cc1/C=C/c1ccc(C(=O)O)cc1)C(C)(C)CCC2(C)C` [Example 8, (E)-4-[2-(5,5,8,8-Tetramethyl-3-pentoxy-5,6,7,8-tetrahydro-naphthalen-2-yl)vinyl]benzoic acid] the melting point was 148 to 149 °C.
In the case of `CCCCCOc1cc2c(cc1/C=C/C=C/C(C)=C/C(=O)O)C(C)(C)CCC2(C)C` [Example 10 (2E isomer), (2E,4E,6E)-3-methyl-7-(5,5,8,8-tetramethyl-3-pentoxy-5,6,7,8-tetrahydro-naphthalen-2-yl)-hepta-2,4,6-trienoic acid], the melting point is reported as 162 to 163 °C.
`CCCCCCCCc1cc2c(cc1/C=C/c1ccc(C(=O)O)cc1)CCC(C)(C)CC2` [Example 11, (E)-4-[2-(7,7-dimethyl-3-octyl-6,7,8,9-tetrahydro-5H-benzocyclohepten-2-yl)vinyl]benzoic acid] showed a melting point of 179.5 to 180.5 °C.
`CCCCc1cc2c(cc1/C=C/c1ccc(C(=O)O)cc1)C(C)(C)CCCC2` [Example 13 (fourth compound), (E)-4-[2-(3-butyl-9,9-dimethyl-6,7,8,9-tetrahydro-5H-benzocyclohepten-2-yl)vinyl]benzoic acid] showed a melting point of 81 to 83 °C.
For `CCCCCCC1C2=C(CC1/C=C/c1ccc(C(=O)O)cc1)C(C)(C)CC=C2` (stereo not shown) [Example 13 (second compound), (E)-4-[2-(3-Hexyl-7,7-dimethyl-indan-2-yl)vinyl]benzoic acid], the melting point was 149 to 150 °C.
Compound `CCCCCCc1cc2c(cc1/C=C/c1ccc(C(=O)O)cc1)CCCCC2(C)C` [Example 13 (third compound), (E)-4-[2-(3-hexyl-5,5-dimethyl-6,7,8,9-tetrahydro-5H-benzocyclohepten-2-yl)vinyl]benzoic acid] has a melting point of 133 to 134 °C.
For `CCCCc1cc2c(cc1/C=C/c1ccc(C(=O)O)cc1)CCCCC2(C)C` [Example 13, (E)-4-[2-(3-Butyl-5,5-dimethyl-6,7,8,9-tetrahydro-5H-benzocyclohepten-2-yl)vinyl]benzoic acid], the melting point was 184 to 186 °C.
`CCCCCC(=O)c1cc2c(cc1/C=C/c1ccc(C(=O)O)cc1)C(C)(C)CCC2(C)C` [Example 16, (E)-4-[2-(3-hexanoyl-5,5,8,8-tetramethyl-5,6,7,8-tetrahydro-naphthalen-2-yl)vinyl]benzoic acid] gave a melting point of 118 to 119 °C.
Compound `CCCCCc1cc2c(cc1C#C/C=C/C(C)=C/C(=O)O)C(C)(C)CCC2(C)C` [Example 17 (2E,4E), (2E,4E)-3-methyl-7-(5,5,8,8-tetramethyl-3-pentyl-5,6,7,8-tetrahydro-naphthalen-2-yl)-hepta-2,4-dien-6-ynoic acid] has a melting point of 155 to 156 °C.
`CCC#CCOc1cc2c(cc1/C=C/c1ccc(C(=O)O)cc1)C(C)(C)CCC2(C)C` [Example 20, (E)-4-[2-(3-pent-2-ynyloxy-5,5,8,8-tetramethyl-5,6,7,8-tetrahydro-naphthalen-2-yl)-vinyl]-benzoic acid] showed a melting point of 144 to 145 °C.
For `CCC#CCOc1cc2c(cc1/C=C/C=C/C(C)=C/C(=O)O)C(C)(C)CCC2(C)C` [Example 21, (2E,4E,6E)-3-methyl-7-(3-pent-2-ynyloxy-5,5,8,8-tetramethyl-5,6,7,8-tetrahydro-naphthalen-2-yl)-hepta-2,4,6-trienoic acid], the melting point was 208 to 209 °C.
`C=CCOc1cc2c(cc1/C=C/c1ccc(C(=O)O)cc1)C(C)(C)CCC2(C)C` [Example 22 (allyloxy), (E)-4-[2-(3-allyloxy-5,5,8,8-tetramethyl-5,6,7,8-tetrahydro-naphthalen-2-yl)-vinyl]-benzoic acid] gave a melting point of 191 to 192 °C.
Compound `C/C=C/COc1cc2c(cc1/C=C/c1ccc(C(=O)O)cc1)C(C)(C)CCC2(C)C` [Example 22 (but-2-enyloxy), 4-[(E)-2-((E)-3-but-2-enyloxy-5,5,8,8-tetramethyl-5,6,7,8-tetrahydro-naphthalen-2-yl)-vinyl]-benzoic acid] has a melting point of 178 to 180 °C.
For `C=CCOc1cc2c(cc1/C=C/C=C/C(C)=C/C(=O)O)C(C)(C)CCC2(C)C` [Example 23 (allyloxy), (2E,4E,6E)-7-(3-allyloxy-5,5,8,8-tetramethyl-5,6,7,8-tetrahydro-naphthalen-2-yl)-3-methyl-hepta-2,4,6-trienoic acid], the melting point was 193 to 194 °C.
